Results reported in patent EP4813991A1 (iLeadBMS Co., Ltd., priority 2023, dated 2025).
Where two headings read alike, the source gives them in different places.

Tests used:
CDK12 [1] = target: T1, CDK12 (Homo sapiens, UniProt Q9NYV4); test: Cellular CDK12 inhibitory activity assay (Ser2 phosphorylation of RNA polymerase II subunit B1 CTD in MDA-MB-231 cells); assay type: cell-based; set-up: using MDA-MB-231 breast cancer cells; endogenous in cells; host or cells: MDA-MB-231; conditions: MDA-MB-231 cells, 6 hours treatment; read-out: pRpbl CTD S2 IC50
Description: MDA-MB-231 cells were dispensed into a 96-well plate at 100 µL of cell suspension per well using L-15 (Invitrogen) medium containing 10 % FBS, followed by overnight incubation in a cell incubator at 37 °C and 0 % CO2. The next day, each Example compound dissolved in DMSO across 9 concentration ranges and a DMSO control group were treated on the MDA-MB-231 cells at 37 °C and 0 % CO2 for 6 hours. After the compound treatment, the medium in the 96-well plate was removed, and 60 µL of a fixing solution (4.0 % paraformaldehyde in PBS) was added to each well, followed by standing for 20 minutes. After removing the fixing solution and washing with PBS, 60 µL of PBS containing 0.1 % Triton X-100 was dispensed into each well, followed by shaking at room temperature for 15 minutes. After washing with PBS, 100 µL of blocking buffer was added, followed by shaking at room temperature for 1 hour. After removing the blocking buffer, primary antibodies, which are RNA polymerase II subunit B1 phospho-Ser2 (1:500, Cell signaling technology) and RNA polymerase II subunit B1 carboxy-terminal domain (1:200, Cell signaling technology), were added at 60 µL per well and reacted overnight at 4 °C. After adding 150 µL of PBS containing 0.1 % Triton X-100 and washing at least twice by shaking at room temperature for 5 minutes, 60 µL of a secondary antibody was added, followed by shaking at room temperature for 1 hour while blocking light. After adding 150 µL of PBS containing 0.1 % Triton X-100 and washing at least twice by shaking at room temperature for 5 minutes, 150 µL of PBS was added again, followed by washing at least twice by shaking at room temperature for 5 minutes. The plate was scanned using a Li-COR Odyssey machine with the wells filled with PBS. IC50 values were calculated by fitting a dose-response curve using a 4-parameter model of Prism (Graphpad) software.

[2] = test system: MDA-MB-231 breast cancer cells; test: Proliferation inhibitory activity assay against MDA-MB-231 breast cancer cells; assay type: cell-based; conditions: Homo sapiens, 72 hours, CellTiter Glo, relative IC50
Description: Experiments were performed using the MDA-MB-231 breast cancer cell line to measure the cell proliferation inhibitory ability of each Example compound. MDA-MB-231 cells were dispensed into a 96-well plate at 100 µL of cell suspension per well using L-15 (Invitrogen) medium containing 10 % FBS, followed by incubation in a cell incubator at 37 °C and 0 % CO2. The next day, each Example compound dissolved and diluted in DMSO across 9 concentration ranges and a DMSO control group were treated on the cells for 72 hours. After the compound treatment was completed, 100 µL of CellTiter Glo (Promega) reagent was added to each well of the 96-well plate, followed by shaking for 10 minutes and standing at room temperature for 10 minutes. Luminescence signals were measured after inserting the 96-well plate into an Envision plate reader (PerkinElmer). Relative IC50 values were calculated by fitting a dose-response curve using XLfit (IDBS Ltd) software.
The breast cancer cell proliferation inhibitory activities of the Example compounds measured by the above method were evaluated according to the following criteria, and the results are presented in Table 13.

CDK13 = CDK13 (Homo sapiens, UniProt Q14004); test: CDK13 kinase inhibitory activity assay (33P-ATP filter binding); assay type: biochemical
Description: (§1) Before initiating the CDK12 and CDK13 kinase reactions, each Example compound was dissolved and diluted in DMSO as a solvent across 9 concentration ranges at room temperature. The diluted solutions were then incubated with a mixture of kinase and substrate (and cofactors, if required) for 20 minutes. Next, radioisotope-labeled ATP (^33P-gamma-ATP) was added to proceed with the kinase reaction at room temperature for 120 minutes. After the reaction was completed, the reaction mixture was transferred to a filter paper that binds the radioisotope-labeled catalytic product (^33P-substrate). Unreacted ^33P-ATP was removed by washing with 0.75 % phosphoric acid, and then the radioactive phosphorylated substrate remaining on the filter paper was measured. Kinase activity data were expressed as a percentage of the kinase activity remaining in the test sample compared to a DMSO control group. The half-maximal inhibitory concentration (IC50) for each kinase was calculated using Prism (Graphpad) software.

CDK12 [3] = target: T1, CDK12; test: CDK12 kinase inhibitory activity assay (33P-ATP filter binding); assay type: biochemical; conditions: kinase reaction 120 minutes, 33P-gamma-ATP; read-out: CDK12 IC50
Description: as §1

[4] = kinase reaction 120 minutes, 33P-gamma-ATP, read-out: CDK13 IC50

T1 sequence (Q9NYV4 whole entry, species assumed): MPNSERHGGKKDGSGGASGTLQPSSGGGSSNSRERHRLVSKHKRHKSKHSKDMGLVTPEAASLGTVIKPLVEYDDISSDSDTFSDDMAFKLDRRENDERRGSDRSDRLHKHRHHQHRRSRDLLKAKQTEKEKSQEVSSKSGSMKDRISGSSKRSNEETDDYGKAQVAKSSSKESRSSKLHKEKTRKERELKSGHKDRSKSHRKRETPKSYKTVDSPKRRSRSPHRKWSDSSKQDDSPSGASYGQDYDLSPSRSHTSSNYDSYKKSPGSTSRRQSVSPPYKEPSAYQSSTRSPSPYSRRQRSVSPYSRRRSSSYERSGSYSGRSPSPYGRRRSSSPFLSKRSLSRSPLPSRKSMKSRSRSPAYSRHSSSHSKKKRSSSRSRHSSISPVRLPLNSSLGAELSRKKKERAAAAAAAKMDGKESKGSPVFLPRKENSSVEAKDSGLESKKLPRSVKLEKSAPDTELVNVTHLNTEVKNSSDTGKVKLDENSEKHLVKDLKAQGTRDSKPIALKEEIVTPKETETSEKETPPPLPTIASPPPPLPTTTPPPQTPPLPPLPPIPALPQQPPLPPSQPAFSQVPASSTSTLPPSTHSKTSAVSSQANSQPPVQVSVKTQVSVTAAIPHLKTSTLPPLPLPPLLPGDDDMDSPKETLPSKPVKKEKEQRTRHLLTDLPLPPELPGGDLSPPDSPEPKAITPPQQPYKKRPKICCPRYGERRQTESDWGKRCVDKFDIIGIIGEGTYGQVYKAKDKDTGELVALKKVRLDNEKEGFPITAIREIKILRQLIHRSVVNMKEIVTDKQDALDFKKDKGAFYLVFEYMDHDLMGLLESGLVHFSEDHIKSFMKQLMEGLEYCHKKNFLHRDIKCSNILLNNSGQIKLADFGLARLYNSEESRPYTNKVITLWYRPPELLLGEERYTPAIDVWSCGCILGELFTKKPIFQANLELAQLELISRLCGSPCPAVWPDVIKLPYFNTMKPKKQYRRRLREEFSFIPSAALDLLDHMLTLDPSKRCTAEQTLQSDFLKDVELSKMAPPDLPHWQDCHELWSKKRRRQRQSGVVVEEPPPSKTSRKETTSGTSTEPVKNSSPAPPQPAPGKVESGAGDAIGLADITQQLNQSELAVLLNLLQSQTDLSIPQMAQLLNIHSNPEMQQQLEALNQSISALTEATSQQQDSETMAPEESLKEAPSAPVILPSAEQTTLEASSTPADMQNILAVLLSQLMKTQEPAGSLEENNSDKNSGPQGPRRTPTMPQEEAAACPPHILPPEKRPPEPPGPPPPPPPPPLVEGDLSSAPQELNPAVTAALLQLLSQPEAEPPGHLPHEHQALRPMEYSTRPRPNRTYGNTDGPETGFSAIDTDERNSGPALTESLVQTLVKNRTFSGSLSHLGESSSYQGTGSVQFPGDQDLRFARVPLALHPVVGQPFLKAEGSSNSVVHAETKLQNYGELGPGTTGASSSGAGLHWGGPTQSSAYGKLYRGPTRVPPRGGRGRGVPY
T1 sequence (O75909 whole entry partner, species assumed): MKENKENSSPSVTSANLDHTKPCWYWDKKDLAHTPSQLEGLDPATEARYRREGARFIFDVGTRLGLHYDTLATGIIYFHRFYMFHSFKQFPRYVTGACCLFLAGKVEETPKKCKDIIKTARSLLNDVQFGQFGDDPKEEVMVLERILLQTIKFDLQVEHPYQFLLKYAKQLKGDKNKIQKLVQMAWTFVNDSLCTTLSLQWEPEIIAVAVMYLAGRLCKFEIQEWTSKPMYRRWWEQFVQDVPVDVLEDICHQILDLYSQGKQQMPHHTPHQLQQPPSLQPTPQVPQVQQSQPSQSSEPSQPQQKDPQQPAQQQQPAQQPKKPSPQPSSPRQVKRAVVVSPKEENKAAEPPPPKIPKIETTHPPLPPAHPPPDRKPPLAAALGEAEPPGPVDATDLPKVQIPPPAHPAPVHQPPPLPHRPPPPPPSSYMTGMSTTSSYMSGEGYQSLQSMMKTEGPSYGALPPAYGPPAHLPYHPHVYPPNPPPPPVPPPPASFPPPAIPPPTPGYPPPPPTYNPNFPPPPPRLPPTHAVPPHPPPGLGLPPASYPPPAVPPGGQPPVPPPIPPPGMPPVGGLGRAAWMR
CDK13, sequence (Q14004 whole entry, species assumed): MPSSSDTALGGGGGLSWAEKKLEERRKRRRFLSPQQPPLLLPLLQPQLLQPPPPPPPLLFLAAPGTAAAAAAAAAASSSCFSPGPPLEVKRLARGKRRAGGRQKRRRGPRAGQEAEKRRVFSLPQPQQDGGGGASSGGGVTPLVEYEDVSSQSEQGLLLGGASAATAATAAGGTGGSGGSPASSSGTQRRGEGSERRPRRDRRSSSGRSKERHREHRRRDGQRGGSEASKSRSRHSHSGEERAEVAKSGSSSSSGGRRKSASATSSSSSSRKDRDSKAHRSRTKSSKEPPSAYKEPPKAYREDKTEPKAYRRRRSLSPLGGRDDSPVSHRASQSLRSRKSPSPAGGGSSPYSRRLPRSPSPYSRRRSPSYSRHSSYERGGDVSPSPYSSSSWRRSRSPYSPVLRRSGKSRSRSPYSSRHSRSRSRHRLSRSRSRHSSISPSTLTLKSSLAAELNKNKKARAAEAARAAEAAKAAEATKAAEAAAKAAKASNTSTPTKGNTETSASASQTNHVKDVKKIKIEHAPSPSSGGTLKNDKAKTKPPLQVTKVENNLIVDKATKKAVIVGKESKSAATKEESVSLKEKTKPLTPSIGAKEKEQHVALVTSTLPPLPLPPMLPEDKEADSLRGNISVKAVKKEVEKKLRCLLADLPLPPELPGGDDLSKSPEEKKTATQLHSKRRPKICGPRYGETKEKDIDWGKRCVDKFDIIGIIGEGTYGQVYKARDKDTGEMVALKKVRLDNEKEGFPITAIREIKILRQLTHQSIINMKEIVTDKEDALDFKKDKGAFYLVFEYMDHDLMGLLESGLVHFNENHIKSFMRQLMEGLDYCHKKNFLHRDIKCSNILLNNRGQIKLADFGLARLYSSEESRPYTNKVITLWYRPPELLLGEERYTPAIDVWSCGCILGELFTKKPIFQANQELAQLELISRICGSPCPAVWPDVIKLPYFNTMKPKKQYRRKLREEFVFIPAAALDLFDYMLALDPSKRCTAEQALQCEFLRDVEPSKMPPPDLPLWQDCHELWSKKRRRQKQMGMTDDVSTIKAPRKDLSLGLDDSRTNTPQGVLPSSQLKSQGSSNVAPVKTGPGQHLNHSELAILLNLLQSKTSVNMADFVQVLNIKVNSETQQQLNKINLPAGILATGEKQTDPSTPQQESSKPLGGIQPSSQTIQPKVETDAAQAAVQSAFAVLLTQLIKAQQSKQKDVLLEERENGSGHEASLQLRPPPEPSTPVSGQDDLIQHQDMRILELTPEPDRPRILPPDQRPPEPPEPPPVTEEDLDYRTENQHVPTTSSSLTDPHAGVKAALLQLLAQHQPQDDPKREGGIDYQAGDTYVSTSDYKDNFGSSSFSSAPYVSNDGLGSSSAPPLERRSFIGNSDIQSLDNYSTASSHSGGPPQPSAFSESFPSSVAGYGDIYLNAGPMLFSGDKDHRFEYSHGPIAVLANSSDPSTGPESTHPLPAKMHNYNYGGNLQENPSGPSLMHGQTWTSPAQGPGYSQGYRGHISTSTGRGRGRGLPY
CDK13, sequence (O75909 whole entry partner, species assumed): as the sequence (O75909 whole entry partner, species assumed) above

Compound	IC50 (CDK12 [1]) [nM]	IC50 [2] [nM]	IC50 (CDK13) [nM]	IC50 (CDK12 [3]) [nM]	IC50 (CDK13; [4]) [nM]
OCC1CN(c2cc(NCc3nc4cc(Cl)c(Cl)cc4[nH]3)c3ncc(C(F)(F)F)n3n2)C1 [Example 60, (1-(8-(((5,6-dichloro-1H-benzo[d]imidazol-2-yl)methyl)amino)-3-(trifluoromethyl)imidazo[1,2-b]pyridazin-6-yl)azetidin-3-yl)methanol]	300 to 3000	50 to 500	< 100	100 to 500	–
N#CC1(O)CCN(c2cc(NCc3nc4cc(Cl)c(Cl)cc4[nH]3)c3ncc(C(F)(F)F)n3n2)C1 (stereo not drawn) [Example 61, 1-(8-(((5,6-dichloro-1H-benzo[d]imidazol-2-yl)methyl)amino)-3-(trifluoromethyl)imidazo[1,2-b]pyridazin-6-yl)-3-hydroxypyrrolidine-3-carbonitrile]	< 300	≤ 50	–	100 to 500	100 to 500
O[C@@H]1CCN(c2cc(NCc3nc4cc(Cl)c(Cl)cc4[nH]3)c3ncc(C(F)(F)F)n3n2)C1 [Example 62, (R)-1-(8-(((5,6-dichloro-1H-benzo[d]imidazol-2-yl)methyl)amino)-3-(trifluoromethyl)imidazo[1,2-b]pyridazin-6-yl)pyrrolidin-3-ol]	< 300	50 to 500	100 to 500	100 to 500	–
O[C@H]1CCN(c2cc(NCc3nc4cc(Cl)c(Cl)cc4[nH]3)c3ncc(C(F)(F)F)n3n2)C1 [Example 63, (S)-1-(8-(((5,6-dichloro-1H-benzo[d]imidazol-2-yl)methyl)amino)-3-(trifluoromethyl)imidazo[1,2-b]pyridazin-6-yl)pyrrolidin-3-ol]	< 300	50 to 500	< 100	100 to 500	–
O=C(O)C1CN(c2cc(NCc3nc4cc(Cl)c(Cl)cc4[nH]3)c3ncc(C(F)(F)F)n3n2)C1 [Example 64, 1-(8-(((5,6-dichloro-1H-benzo[d]imidazol-2-yl)methyl)amino)-3-(trifluoromethyl)imidazo[1,2-b]pyridazin-6-yl)azetidine-3-carboxylic acid]	> 3000	> 500	–	100 to 500	< 100
NC(=O)C1CN(c2cc(NCc3nc4cc(Cl)c(Cl)cc4[nH]3)c3ncc(C(F)(F)F)n3n2)C1 [Example 65, 1-(8-(((5,6-dichloro-1H-benzo[d]imidazol-2-yl)methyl)amino)-3-(trifluoromethyl)imidazo[1,2-b]pyridazin-6-yl)azetidine-3-carboxamide]	< 300	50 to 500	–	< 100	< 100
NC(=O)N1CCN(c2cc(NCc3nc4cc(Cl)c(Cl)cc4[nH]3)c3ncc(C(F)(F)F)n3n2)CC1 [Example 66, 4-(8-(((5,6-dichloro-1H-benzo[d]imidazol-2-yl)methyl)amino)-3-(trifluoromethyl)imidazo[1,2-b]pyridazin-6-yl)piperazine-1-carboxamide]	< 300	50 to 500	< 100	< 100	–
NC(=O)C1CCN(c2cc(NCc3nc4cc(Cl)c(Cl)cc4[nH]3)c3ncc(C(F)(F)F)n3n2)CC1 [Example 67, 1-(8-(((5,6-dichloro-1H-benzo[d]imidazol-2-yl)methyl)amino)-3-(trifluoromethyl)imidazo[1,2-b]pyridazin-6-yl)piperidine-4-carboxamide]	< 300	50 to 500	–	< 100	< 100
Fc1cc2nc(CNc3cc(N4CCOCC4)nn4c(C(F)(F)F)cnc34)[nH]c2cc1F [Example 70, N-((5,6-difluoro-1H-benzo[d]imidazol-2-yl)methyl)-6-morpholino-3-(trifluoromethyl)imidazo[1,2-b]pyridazin-8-amine]	< 300	≤ 50	–	< 100	< 100
FC(F)(F)c1cnc2c(NCc3nc4ccncc4[nH]3)cc(N3CCOCC3)nn12 [Example 74, N-((3H-imidazo[4,5-c]pyridin-2-yl)methyl)-6-morpholino-3-(trifluoromethyl)imidazo[1,2-b]pyridazin-8-amine]	300 to 3000	50 to 500	–	< 100	< 100
FC(F)(F)c1ccc2[nH]c(CNc3cc(N4CCOCC4)nn4c(C(F)(F)F)cnc34)nc2c1 [Example 78, 6-morpholino-3-(trifluoromethyl)-N-((5-(trifluoromethyl)-1H-benzo[d]imidazol-2-yl)methyl)imidazo[1,2-b]pyridazin-8-amine]	300 to 3000	50 to 500	–	< 100	< 100
Cc1cc2[nH]c(CNc3cc(N4CCOCC4)nn4c(C(F)(F)F)cnc34)nc2cc1Cl [Example 79, N-((5-chloro-6-methyl-1H-benzo[d]imidazol-2-yl)methyl)-6-morpholino-3-(trifluoromethyl)imidazo[1,2-b]pyridazin-8-amine]	< 300	≤ 50	–	< 100	< 100
Cc1cc2[nH]c(CNc3cc(N4CCOCC4)nn4c(C(F)(F)F)cnc34)nc2cc1C(F)(F)F [Example 80, N-((6-methyl-5-(trifluoromethyl)-1H-benzo[d]imidazol-2-yl)methyl)-6-morpholino-3-(trifluoromethyl)imidazo[1,2-b]pyridazin-8-amine]	< 300	≤ 50	–	< 100	< 100
FC(F)(F)c1cc2nc(CNc3cc(N4CCOCC4)nn4c(C(F)(F)F)cnc34)[nH]c2cc1C(F)(F)F [Example 81, N-((5,6-bis(trifluoromethyl)-1H-benzo[d]imidazol-2-yl)methyl)-6-morpholino-3-(trifluoromethyl)imidazo[1,2-b]pyridazin-8-amine]	300 to 3000	50 to 500	–	> 500	100 to 500
FC(F)(F)c1cnc2c(NCc3cn4ccccc4n3)cc(N3CCOCC3)nn12 [Example 82, N-(imidazo[1,2-a]pyridin-2-ylmethyl)-6-morpholino-3-(trifluoromethyl)imidazo[1,2-b]pyridazin-8-amine]	300 to 3000	50 to 500	< 100	< 100	–
FC(F)(F)c1cnc2c(NCc3cn4cccnc4n3)cc(N3CCOCC3)nn12 [Example 83, N-(imidazo[1,2-a]pyrimidin-2-ylmethyl)-6-morpholino-3-(trifluoromethyl)imidazo[1,2-b]pyridazin-8-amine]	300 to 3000	50 to 500	< 100	< 100	–
FC(F)(F)c1cnc2c(NCc3cc4cccnc4[nH]3)cc(N3CCOCC3)nn12 [Example 84, N-((1H-pyrrolo[2,3-b]pyridin-2-yl)methyl)-6-morpholino-3-(trifluoromethyl)imidazo[1,2-b]pyridazin-8-amine]	300 to 3000	50 to 500	< 100	< 100	–
FC(F)(F)c1cnc2c(NCc3cn4ncccc4n3)cc(N3CCOCC3)nn12 [Example 85, N-(imidazo[1,2-b]pyridazin-2-ylmethyl)-6-morpholino-3-(trifluoromethyl)imidazo[1,2-b]pyridazin-8-amine]	> 3000	> 500	< 100	< 100	–
